Assays:
Test in all cases: relative viability (nuclei count vs DMSO), 5 days (fraction); higher = more cells survive
[1] = system: A-427
How it was run: (§1)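 Each reported value is a median over duplicate plates. It expresses relative viability: treated-well nuclei count divided by vehicle-well nuclei count. Lung cancer cell lines in 1536-well plates were dosed by pin tool a day after seeding, alone with one drug or with a fixed anchor-drug dose plus five library-drug doses (not always all listed) in √10 steps, and nuclei were counted after 5 days.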

[2] = system: NCI-H1437
How it was run: as §1

[3] = system: HOP-62
How it was run: as §1

[4] = system: CAL-12T
How it was run: as §1

[5] = system: HCC-827
How it was run: as §1

[6] = system: NCI-H727
How it was run: as §1

[7] = system: NCI-H522
How it was run: as §1

[8] = system: NCI-H460
How it was run: as §1

[9] = system: EMC-BAC-2
How it was run: as §1

[10] = system: NCI-H1915
How it was run: as §1

[11] = system: NCI-H1395
How it was run: as §1

[12] = system: NCI-H1792
How it was run: as §1

[13] = system: NCI-H23
How it was run: as §1

[14] = system: HCC-366
How it was run: as §1

[15] = system: HARA
How it was run: as §1

[16] = system: LCLC-103H
How it was run: as §1

[17] = system: NCI-H1755
How it was run: as §1

Compound `O=c1cc(N2CCOCC2)oc2c(-c3cccc4c3sc3ccccc34)cccc12` + NC(=O)Nc1cc(-c2cccc(F)c2)sc1C(=O)N[C@H]1CCCNC1 [AZD7762] (partner 0.2 µM) has a relative viability ([1]; first compound 0.01 µM) of 0.731, a relative viability ([1]; first compound 0.03162 µM) of 0.767 and a relative viability ([1]; first compound 0.1 µM) of 0.529. The relative viability ([1]; first compound 0.3162 µM) was 0.795, the relative viability ([1]; first compound 1 µM) was 0.735 and the relative viability ([2]; first compound 0.01 µM) was 1.22. It also gave a relative viability ([2]; first compound 0.03162 µM) of 1.12, a relative viability ([2]; first compound 0.1 µM) of 1.12 and a relative viability ([2]; first compound 0.3162 µM) of 1.1. The relative viability ([2]; first compound 1 µM) was 1.04, the relative viability ([3]; first compound 0.01 µM) was 0.514 and the relative viability ([3]; first compound 0.03162 µM) was 0.574. For the same compound, the relative viability ([3]; first compound 0.1 µM) was 0.188, the relative viability ([3]; first compound 0.3162 µM) was 0.745 and the relative viability ([3]; first compound 1 µM) was 0.689. It also gave a relative viability ([4]; first compound 0.01 µM) of 0.58, a relative viability ([4]; first compound 0.03162 µM) of 0.541 and a relative viability ([4]; first compound 0.1 µM) of 0.852. For the same compound, the relative viability ([4]; first compound 0.3162 µM) was 0.676, the relative viability ([4]; first compound 1 µM) was 0.498 and the relative viability ([5]; first compound 0.01 µM) was 0.26. The relative viability ([5]; first compound 0.03162 µM) was 0.179, the relative viability ([5]; first compound 0.1 µM) was 0.133 and the relative viability ([5]; first compound 0.3162 µM) was 0.184. The relative viability ([5]; first compound 1 µM) was 0.261, the relative viability ([6]; first compound 0.01 µM) was 0.583 and the relative viability ([6]; first compound 0.03162 µM) was 0.486. The relative viability ([6]; first compound 0.1 µM) was 0.423, the relative viability ([6]; first compound 0.3162 µM) was 0.596 and the relative viability ([6]; first compound 1 µM) was 0.575. The relative viability ([7]; first compound 0.01 µM) was 0.737, the relative viability ([7]; first compound 0.03162 µM) was 0.894 and the relative viability ([7]; first compound 0.1 µM) was 0.504. For the same compound, the relative viability ([7]; first compound 0.3162 µM) was 0.967, the relative viability ([7]; first compound 1 µM) was 0.775 and the relative viability ([8]; first compound 0.01 µM) was 0.518. For the same compound, the relative viability ([8]; first compound 0.03162 µM) was 0.622, the relative viability ([8]; first compound 0.1 µM) was 0.451 and the relative viability ([8]; first compound 0.3162 µM) was 0.589. For the same compound, the relative viability ([8]; first compound 1 µM) was 0.636, the relative viability ([9]; first compound 0.01 µM) was 1.09 and the relative viability ([9]; first compound 0.03162 µM) was 1.17. The relative viability ([9]; first compound 0.1 µM) was 1.19, the relative viability ([9]; first compound 0.3162 µM) was 1.14 and the relative viability ([9]; first compound 1 µM) was 1.11. For the same compound, the relative viability ([10]; first compound 0.01 µM) was 0.763, the relative viability ([10]; first compound 0.03162 µM) was 0.725 and the relative viability ([10]; first compound 0.1 µM) was 0.731. The relative viability ([10]; first compound 0.3162 µM) was 0.658, the relative viability ([10]; first compound 1 µM) was 0.675 and the relative viability ([11]; first compound 0.03162 µM) was 0.403. For the same compound, the relative viability ([11]; first compound 0.1 µM) was 0.357, the relative viability ([11]; first compound 0.3162 µM) was 0.428 and the relative viability ([11]; first compound 1 µM) was 0.372. For the same compound, the relative viability ([12]; first compound 0.01 µM) was 0.75, the relative viability ([12]; first compound 0.03162 µM) was 0.682 and the relative viability ([12]; first compound 0.3162 µM) was 0.673. For the same compound, the relative viability ([12]; first compound 1 µM) was 0.733, the relative viability ([13]; first compound 0.01 µM) was 0.306 and the relative viability ([13]; first compound 0.03162 µM) was 0.309. It also gave a relative viability ([13]; first compound 0.3162 µM) of 0.307, a relative viability ([13]; first compound 1 µM) of 0.272 and a relative viability ([14]; first compound 0.01 µM) of 0.247. It also gave a relative viability ([14]; first compound 0.03162 µM) of 0.286, a relative viability ([14]; first compound 0.1 µM) of 0.127 and a relative viability ([14]; first compound 0.3162 µM) of 0.287. The relative viability ([14]; first compound 1 µM) was 0.288, the relative viability ([15]; first compound 0.01 µM) was 0.501 and the relative viability ([15]; first compound 0.03162 µM) was 0.303. For the same compound, the relative viability ([15]; first compound 0.1 µM) was 0.302, the relative viability ([15]; first compound 0.3162 µM) was 0.343 and the relative viability ([15]; first compound 1 µM) was 0.357. The relative viability ([16]; first compound 0.01 µM) was 0.799, the relative viability ([16]; first compound 0.03162 µM) was 0.777 and the relative viability ([16]; first compound 0.1 µM) was 0.804. It also gave a relative viability ([16]; first compound 0.3162 µM) of 0.815, a relative viability ([16]; first compound 1 µM) of 0.688 and a relative viability ([17]; first compound 0.01 µM) of 0.473. The relative viability ([17]; first compound 0.03162 µM) was 0.417, the relative viability ([17]; first compound 0.1 µM) was 0.427 and the relative viability ([17]; first compound 0.3162 µM) was 0.434. It also gave a relative viability ([17]; first compound 1 µM) of 0.487.

Source: the supplement of paper PMC10307832
